Experimental data taken from patent publication US11185593B2, “Alkylating agent for alkylating target with driver oncogene mutation” (Chiba Prefecture, priority 2013, dated 2021).

Legend:
SW480 (KRAS-MUThomo) = assay: Suppression of tumor growth in nude mice, SW480 transplanted; type: in vivo; conditions: nude mice with SW480 cells; for cancer tumor-inhibitory effect / tumor growth suppression: comparison KR12, KR13, seco CBI, FIG. 15
Method: The below-mentioned 3 types of PBS solutions containing each type of cells were subcutaneously transplanted into the femurs of nude mice (i.e., HT29 into 7 mice, LS180 into 7 mice, and SW480 into 6 mice), and thereafter, at a time point in which a tumor adhered to the living body of each mouse and the tumor volume became approximately 100 mm^3, a drug was prepared with a composition of 3.4 mmol KR12 (1.36 mM KR12 dissolved in 2.5 μL of DMSO and 197.5 μL of PBS), or of a DMSO/PBS control (2.5 μL of DMSO and 197.5 μL of PBS). The prepared drug was subjected to sonication for 10 minutes, and 200 μL of the drug was administered to each mouse via the caudal vein thereof. The body weight and the tumor size were measured once three days, and the size of the tumor was measured by the method of 0.52×L×W×D(1/6×π×L×W×D).
SW480 (KRAS-MUThomo): (transplanted in an amount of 5×10^6 cells/100 μl PBS into the subcutis of each mouse; a cell line having a […] KRAS gene codon 12 mutation G12V)
Using, as controls, PIP-indole-seco-CBI (KR13) not recognizing a codon 12 mutation and 8.4 mmol seco CBI (3.36 mM CBI dissolved in 2.5 μL of DMSO and 197.5 μL of PBS), instead of the DMSO/PBS control, an experiment was carried out by the same method as that of the above section 11.

LS180 cells = assay: Confirmation of cell death (apoptosis) by fragmentation of DNA; type: cell-based, human; conditions: LS180, 50 nM, FIG. 10B
Method: Regarding the treatment of cells, the LS180 cells were cultured at a cell density of 1.0×10^5 cells/30 mm dish in a culture media of MEM (gibco)+10% FBS (gibco)+100 units/ml Penicillin+100 μg/ml Streptmycin (gibco). Thereafter, the cultured cells were treated with 50 nM KR12 or KR13 (dissolved in 0.125% DMSO) for 72 hours, and also, as a long-term experiment, the cells were treated with KR 12 or KR13 for […]. Thereafter, the cells of different groups were treated with a control MEM medium containing 10% FBS and 0.125% DMSO for 11 days. At the same time, as a control group, the LS180 cells were treated with 10% FBS and 0.125% DMSO for 14 days. Thereafter, the cells of the different groups were treated with trypsin, and were then recovered. The recovered cells were stirred in 50 μl of a PBS solution, and 3 μl of 1.5% Triton X (in water) and 3 μl of an RNase (1 mg/ml in water) were then added to the reaction solution. The mixed solution was treated at 37° C. for 30 minutes. Subsequently, 3 μl of proteinase K (1 mg/ml) was added to the reaction solution, and the obtained mixture was then treated at 37° C. for 30 minutes. Subsequently, 12 μl of 6× loading buffer was further added to the reaction solution, and the obtained mixture was treated at 65° C. for 10 minutes. Immediately after the treatment, 20 μl of the reaction solution was electrophoresed on 2% agarose gel in TBE at 100 V, and the gel was then stained with ethidium.

[1] = test system: mutant codon 12 KRAS gene and wild-type KRAS gene in LS180; assay: Colony sequence of KRAS transcripts, LS180; type: cell-based, human; conditions: for MUT (number of mutant gene colonies) / WT (number of wild-type gene colonies): LS180, 50 nM, 48 hours, colony sequence, Table 2; for number of mutant gene colonies relative to wild-type gene colonies: LS180, colony sequence method
Method: The cells (6.5×10^4) were seeded and were then cultured overnight. Thereafter, the cultured cells were treated with 50 nM KR12 or KR13, and were then cultured for 48 hours. After that, the cultured cells were harvested, and RNA was then extracted. For the extraction, RT-PCT was carried out using RNeasy mini kit (Qiagen, CA). Subsequently, using the extracted RNA as a template, cDNA for reverse transcription was prepared by employing Super Script VILO cDNA Synthesis Kit (Invitrogen, CA). Using the prepared cDNA as a template, PCR was carried out using the primers shown in SEQ ID NO: 7 and SEQ ID NO: 8. After a reaction had been carried out at 94° C. for 5 minutes, a reaction cycle of 94° C.-30 seconds, 55° C.-30 seconds, and 72° C.-30 seconds was repeated 20 times. Finally, an elongation reaction was carried out at 72° C. for 7 minutes. The PCR product was cloned using pGEM-T Easy vector (Promega, WI). Thereafter, Escherichia coli DH5α competent cells (Toyobo, Japan) were transformed with the clone, and the obtained transformant was then cultured at 37° C. overnight in an LB plate containing 50 μg/mL ampicillin, 1 mg of X-gal and 1 mg of isopropyl-β-thiogalactopyranoside. White colonies were identified by colony direct PCR. Regarding the PCR reaction cycle, after a reaction had been carried out at 94° C. for 5 minutes, a reaction cycle of 94° C.-30 seconds, 55° C.-30 seconds, and 72° C.-30 seconds was repeated 30 times. Finally, an elongation reaction was carried out at 72° C. for 7 minutes. The following primer set, namely, an M13-F1 primer and an M13-R1 primer were used for amplification. The sequence of the amplified DNA was decoded using a sequencing primer KRAS-2R, and the KRAS gene mutation site in each colony was then identified.
KR12, which was considered to specifically alkylate the KRAS mutant codon 12 gene, was administered to a heterozygous colon cancer cell line LS180 having both a mutant codon 12 KRAS gene and a wild-type KRAS gene. Forty-eight hours later, RNA was extracted, and the KRAS gene was then quantitatively amplified. The amplified gene was cloned into a plasmid, using a TA cloning kit, and the obtained plasmid was then introduced into competent cells. Thereafter, by performing blue-white selection using an LB/amp/IPTG/X-Gal plate, white colonies having inserts were picked up, and then, the presence or absence of a colon 12 mutation in each colony was examined by direct sequencing or by a colony PCR method.

Row | SMILES | tumor size (SW480 (KRAS-MUThomo); 3.4 mmol KR12 via the caudal vein, FIG. 14C) | size of the tumor (SW480 (KRAS-MUThomo); 2 months after the administration) | state of the tumor (SW480 (KRAS-MUThomo); 3 months after the administration) | cancer tumor-inhibitory effect / tumor growth suppression (SW480 (KRAS-MUThomo)) | DNA fragmentation (LS180 cells; 72-hour-treated groups) | DNA fragmentation (LS180 cells; long-term treatment) | MUT (number of mutant gene colonies) [1] | WT (number of wild-type gene colonies) [1] | number of mutant gene colonies relative to wild-type gene colonies [1]
1 | CC(=O)Nc1cn(C)c(C(=O)Nc2cc(C(=O)NCCC(=O)Nc3cn(C)c(C(=O)Nc4cn(C)c(C(=O)Nc5cc(C(=O)Nc6cn(C)c(C(=O)NCCCC(=O)Nc7cc(C(=O)Nc8cn(C)c(C(=O)NCCC(=O)Nc9cc(C(=O)Nc%10cc(C(=O)Nc%11ccc%12[nH]c(C(=O)N%13CC(CCl)c%14c%13cc(O)c%13ccccc%14%13)cc%12c%11)n(C)c%10)n(C)c9)n8)n(C)c7)n6)n(C)c5)n4)n3)n(C)c2)n1 (stereo not drawn) [KR12] | significantly reduced | significantly reduced | an extremely small and hard induration | significantly higher than in the case of administration of KR13 | DNA fragmentation was not observed | DNA fragmentation induced by cell death was observed | 14 | 29 | the number of mutant gene colonies was a half of the number of wild-type gene colonies
2 | CC(=O)Nc1cn(C)c(C(=O)Nc2cn(C)c(C(=O)Nc3cc(C(=O)Nc4cn(C)c(C(=O)NCCC(=O)Nc5cc(C(=O)Nc6cn(C)c(C(=O)NCCCC(=O)Nc7cc(C(=O)Nc8cn(C)c(C(=O)Nc9cc(C(=O)NCCC(=O)Nc%10cc(C(=O)Nc%11ccc%12[nH]c(C(=O)N%13CC(CCl)c%14c%13cc(O)c%13ccccc%14%13)cc%12c%11)n(C)c%10)n(C)c9)n8)n(C)c7)n6)n(C)c5)n4)n(C)c3)n2)n1 (stereo not drawn) [KR13] |  |  |  | impossible | DNA fragmentation was not observed | DNA fragmentation was not observed | 22 | 15 | the number of mutant genes was rather increased
